According to EP4772510A2, “BENZAZEPINONE COMPOUND AND USE THEREOF” (HANGZHOU BIO-SINCERITY PHARMA-TECHCO., LTD., priority 2023, dated 2025):

Target: T1, hERG ion channel (Homo sapiens, UniProt Q12809)
T1 construct: expressed in transfected cells
Assay: Inhibition of hERG ion channel (whole-cell patch clamp, HEK293 cells)
Assay type: cell-based
Conditions: compound 10 µM, room temperature
Description: Example 58: Inhibition of hERG Ion Channel by Compounds
The hERG ion channel was stably expressed in HEK293 cells.
The test sample was dissolved in dimethyl sulfoxide (DMSO) to prepare a 9 mM stock solution, which was stored in a -20 °C freezer. On the testing day, the stock solution was further dissolved in the extracellular fluid to achieve the required concentrations. The concentration for electrophysiological test was 10 µM.
The extracellular fluid (mM) was: sodium chloride, 137; potassium chloride, 4; calcium chloride, 1.8; magnesium chloride, 1; HEPES, 10; glucose, 10. The pH was adjusted to 7.34 with sodium hydroxide. The extracellular fluid was stored at 2-8 °C.
The intracellular fluid (mM) was: potassium aspartate, 130; magnesium chloride, 5; ethylene glycol tetraacetic acid (EGTA), 5; N-2-hydroxyethylpiperazine-N'-2-ethanesulfonic acid (HEPES), 10. […]
For administration of the test samples, perfusion was carried out using a perfusion system utilizing the gravity of one's own. […] The mean of the peak current amplitudes recorded for the last three times during the initial recording served as the current peak of the negative control. After the initial current was stable, the test samples were administered starting from a low concentration until three recorded peak currents were again stable or the peak currents were "constant" after and before continuous administration for 5 min. […]

T1 sequence (Q12809 whole entry): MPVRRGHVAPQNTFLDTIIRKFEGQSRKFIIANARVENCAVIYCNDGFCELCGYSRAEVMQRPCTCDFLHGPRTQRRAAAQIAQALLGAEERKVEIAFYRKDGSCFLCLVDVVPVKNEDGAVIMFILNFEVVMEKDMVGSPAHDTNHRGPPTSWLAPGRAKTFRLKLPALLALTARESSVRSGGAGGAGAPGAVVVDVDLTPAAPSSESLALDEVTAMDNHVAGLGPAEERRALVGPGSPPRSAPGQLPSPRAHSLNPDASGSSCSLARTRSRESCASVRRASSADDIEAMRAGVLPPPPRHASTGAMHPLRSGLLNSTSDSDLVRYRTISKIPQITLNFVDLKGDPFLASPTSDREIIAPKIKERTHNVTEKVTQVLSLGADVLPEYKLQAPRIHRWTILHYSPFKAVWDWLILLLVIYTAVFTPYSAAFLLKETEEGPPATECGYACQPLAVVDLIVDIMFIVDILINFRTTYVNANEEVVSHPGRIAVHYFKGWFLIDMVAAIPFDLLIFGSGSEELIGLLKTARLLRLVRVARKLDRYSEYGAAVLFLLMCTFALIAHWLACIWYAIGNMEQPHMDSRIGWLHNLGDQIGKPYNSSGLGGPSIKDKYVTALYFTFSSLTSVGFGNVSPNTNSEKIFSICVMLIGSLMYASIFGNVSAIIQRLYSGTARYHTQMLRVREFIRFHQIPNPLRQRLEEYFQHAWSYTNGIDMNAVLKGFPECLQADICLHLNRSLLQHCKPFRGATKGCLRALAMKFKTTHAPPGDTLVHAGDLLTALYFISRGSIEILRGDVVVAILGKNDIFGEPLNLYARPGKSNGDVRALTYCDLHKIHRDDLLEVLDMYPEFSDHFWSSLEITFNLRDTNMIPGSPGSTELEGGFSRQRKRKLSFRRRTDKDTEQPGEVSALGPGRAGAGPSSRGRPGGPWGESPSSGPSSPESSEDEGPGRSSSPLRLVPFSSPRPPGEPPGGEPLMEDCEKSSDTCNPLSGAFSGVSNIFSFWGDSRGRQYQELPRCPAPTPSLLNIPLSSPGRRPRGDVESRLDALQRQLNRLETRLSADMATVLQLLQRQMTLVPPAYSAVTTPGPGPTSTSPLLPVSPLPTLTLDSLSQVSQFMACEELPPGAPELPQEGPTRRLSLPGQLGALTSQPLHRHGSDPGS

| Compound | Percentage blocking rate of hERG channel |
| --- | --- |
| O=C(NC1CCc2cc(C#Cc3cnn(C(F)F)c3)cc3c2N(CC3)C1=O)c1ncn(Cc2c(F)cccc2F)n1 (centres unmarked) [III-17, 1-(2,6-difluorobenzyl)-N-(9-((1-(difluoromethyl)-1H-pyrazol-4-yl)ethynyl)-4-oxo-1,2,3,4,6,7-hexahydroazepino[3,2,1-hi]indol-3-yl)-1H-1,2,4-triazole-3-carboxamide] | 38.89% |
| N-(9-((1-(difluoromethyl)-1H-pyrazol-4-yl)ethynyl)-4-oxo-1,2,3,4,6,7-hexahydroazepino[3,2,1-hi]indol-3-yl)-1-(4-methylbenzyl)-1H-1,2,4-triazole-3-carboxamide [III-25] | 39.58% |
